Results taken from patent publication US8618289B2 (Ambit Biosciences Corporation, priority 2008, dated 2013).
pEC50, pIC50, pKd: −log10 of the molar value.

Key:
[1] = system: A375 cells; test: cells; settings: Homo sapiens, A-375, read-out: A375 Viability EC50
[2] = target: RAF kinases (Homo sapiens, UniProt P04049); test: biochemical
[3] = target: RAF kinases (Homo sapiens, UniProt P15056); test: biochemical
[4] = target: RAF kinases (Homo sapiens, UniProt P15056, V600E); test: biochemical
[5] = system: MEK1 phosphorylation in the A375 human melanoma cell line; test: cells; settings: A-375, read-out: pMEK IC50

Sequence of RAF kinases (Homo sapiens, UniProt P04049) (P04049 whole entry): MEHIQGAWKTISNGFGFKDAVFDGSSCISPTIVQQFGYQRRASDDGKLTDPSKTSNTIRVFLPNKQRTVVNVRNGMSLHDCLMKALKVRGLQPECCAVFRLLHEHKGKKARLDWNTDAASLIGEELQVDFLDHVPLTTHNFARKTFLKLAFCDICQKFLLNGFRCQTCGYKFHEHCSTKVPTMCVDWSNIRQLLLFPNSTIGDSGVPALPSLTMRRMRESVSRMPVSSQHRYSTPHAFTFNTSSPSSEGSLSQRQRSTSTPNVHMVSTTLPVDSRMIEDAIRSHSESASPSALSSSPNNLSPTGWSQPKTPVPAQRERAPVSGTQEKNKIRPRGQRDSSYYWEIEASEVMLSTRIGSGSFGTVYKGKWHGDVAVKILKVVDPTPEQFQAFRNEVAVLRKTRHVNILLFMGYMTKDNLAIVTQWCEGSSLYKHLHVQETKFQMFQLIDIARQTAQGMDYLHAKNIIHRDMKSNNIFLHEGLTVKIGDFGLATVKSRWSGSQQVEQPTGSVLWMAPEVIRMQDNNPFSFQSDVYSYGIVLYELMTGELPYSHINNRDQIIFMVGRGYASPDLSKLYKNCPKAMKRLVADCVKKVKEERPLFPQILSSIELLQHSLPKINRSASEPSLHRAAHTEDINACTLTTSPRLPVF
Sequence of RAF kinases (Homo sapiens, UniProt P15056) (P15056 whole entry): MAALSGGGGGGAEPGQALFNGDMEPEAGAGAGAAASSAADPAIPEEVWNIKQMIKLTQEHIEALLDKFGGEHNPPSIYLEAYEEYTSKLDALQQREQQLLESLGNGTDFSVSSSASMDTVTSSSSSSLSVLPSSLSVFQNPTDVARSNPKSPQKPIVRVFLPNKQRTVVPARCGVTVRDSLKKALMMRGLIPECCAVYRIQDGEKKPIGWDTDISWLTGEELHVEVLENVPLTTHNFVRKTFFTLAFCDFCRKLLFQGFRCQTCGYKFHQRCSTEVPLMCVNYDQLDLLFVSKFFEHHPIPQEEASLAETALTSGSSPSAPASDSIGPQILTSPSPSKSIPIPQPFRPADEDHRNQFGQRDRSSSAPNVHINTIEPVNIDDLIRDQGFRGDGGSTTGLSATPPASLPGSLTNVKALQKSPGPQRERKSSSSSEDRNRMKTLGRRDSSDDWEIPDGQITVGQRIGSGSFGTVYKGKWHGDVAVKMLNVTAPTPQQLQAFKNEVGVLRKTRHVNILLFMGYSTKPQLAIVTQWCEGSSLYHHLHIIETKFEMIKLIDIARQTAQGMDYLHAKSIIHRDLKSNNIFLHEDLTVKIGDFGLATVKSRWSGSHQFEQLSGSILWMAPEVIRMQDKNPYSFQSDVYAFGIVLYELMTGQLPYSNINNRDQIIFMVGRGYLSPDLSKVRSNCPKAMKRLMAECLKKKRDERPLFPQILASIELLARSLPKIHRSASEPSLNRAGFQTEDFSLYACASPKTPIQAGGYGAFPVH
Sequence of RAF kinases (Homo sapiens, UniProt P15056, V600E) (P15056 whole entry V600E): as the sequence (P15056 whole entry) above, with V600E counted along it

SMILES | pEC50 [1] | pKd [2] | pKd [3] | pKd [4] | pIC50 [5]
COCCOc1cc(NC(=O)Nc2cccc(Oc3ncnc4cc(OCCOC)c(OC)cc34)c2)cc(C(F)(F)F)c1 [Ex 117, 1-(3-(6-methoxy-7-(2-methoxyethoxy)quinazolin-4-yloxy)phenyl)-3-(3-(2-methoxyethoxy)-5-(trifluoromethyl)phenyl)urea] | < 6.00 | 6.30 to 6.60 | 6.00 to 6.30 | 6.30 to 6.60 | < 6.00
COc1cc2c(Sc3cccc(NC(=O)Nc4ccc(OC)c(C(F)(F)F)c4)c3)ncnc2cc1OCCN1CCOCC1 [Ex 249, 1-(4-methoxy-3-(trifluoromethyl)phenyl)-3-(3-(6-methoxy-7-(2-morpholinoethoxy)quinazolin-4-ylthio)phenyl)urea] | < 6.00 | 6.00 to 6.30 | 6.00 to 6.30 | 6.30 to 6.60 | 6.00 to 6.30
COCCOc1cc2ncnc(Sc3cccc(NC(=O)Nc4cc(C(F)(F)F)nn4-c4ccc(F)cc4)c3)c2cc1OC [Ex 242, 1-[1-(4-fluorophenyl)-3-(trifluoromethyl)-1H-pyrazol-5-yl]-3-{3-[6-methoxy-7-(2-methoxyethoxy)quinazolin-4-ylthio]phenyl}urea] | < 6.00 | < 6.00 | < 6.00 | < 6.00 | 6.00 to 6.30
CCOc1cc2c(Oc3cccc(NC(=O)Nc4cc(C(F)(F)F)nn4-c4ccccc4)c3)ncnc2cc1OC [Ex 391, 1-(3-(6-ethoxy-7-methoxyquinazolin-4-yloxy)phenyl)-3-(1-phenyl-3-(trifluoromethyl)-1H-pyrazol-5-yl)urea] | > 6.60 | 6.30 to 6.60 | 6.30 to 6.60 | > 6.60 | > 6.60
COc1cc(NC(=O)Nc2cccc(Oc3ncnc4cc(OC)c(OC)cc34)c2)cc(C(F)(F)F)c1 [Ex 116, 1-(3-(6,7-dimethoxyquinazolin-4-yloxy)phenyl)-3-(3-methoxy-5-(trifluoromethyl)phenyl)urea] | < 6.00 | 6.30 to 6.60 | 6.00 to 6.30 | 6.30 to 6.60 | < 6.00
COc1cc2ncnc(Oc3cccc(NC(=O)Nc4cc(C5CCCC5)no4)c3)c2cc1OC [Ex 163, 1-(3-cyclopentylisoxazol-5-yl)-3-(3-(6,7-dimethoxyquinazolin-4-yloxy)phenyl)urea] | < 6.00 | 6.00 to 6.30 |  | 6.30 to 6.60 | < 6.00
COc1cc2ncnc(Oc3cccc(NC(=O)Nc4cc(C(C)(C)F)no4)c3)c2cc1OC [Ex 126, 1-(3-(6,7-dimethoxyquinazolin-4-yloxy)phenyl)-3-(3-(2-fluoropropan-2-yl)isoxazol-5-yl)urea] | 6.00 to 6.30 | > 6.60 | 6.30 to 6.60 | > 6.60 | > 6.60
COc1cc2ncnc(Oc3cccc(NC(=O)Nc4cc(C5(C(F)(F)F)CC5)nn4-c4ccccc4)c3)c2cc1OC [Ex 137, 1-(3-(6,7-dimethoxyquinazolin-4-yloxy)phenyl)-3-(1-phenyl-3-(1-(trifluoromethyl)cyclopropyl)-1H-pyrazol-5-yl)urea] | 6.00 to 6.30 | < 6.00 | < 6.00 | 6.00 to 6.30 | > 6.60
COCCOc1cc2ncnc(Oc3cccc(NC(=O)Nc4cc(C(C)(F)F)no4)c3)c2cc1OC [Ex 211, 1-(3-(1,1-difluoroethyl)isoxazol-5-yl)-3-(3-(6-methoxy-7-(2-methoxyethoxy)quinazolin-4-yloxy)phenyl)urea] | < 6.00 | 6.30 to 6.60 | 6.00 to 6.30 | 6.30 to 6.60 | < 6.00
COc1cc2ncnc(Oc3cccc(NC(=O)Nc4cc(C5CCOCC5)no4)c3)c2cc1OC [Ex 123, 1-(3-(6,7-dimethoxyquinazolin-4-yloxy)phenyl)-3-(3-(tetrahydro-2H-pyran-4-yl)isoxazol-5-yl)urea] | < 6.00 | 6.00 to 6.30 |  | 6.30 to 6.60 | < 6.00
COc1cc(OC2CCOCC2)c2c(Oc3cccc(NC(=O)Nc4cc(C(C)(C)C)on4)c3)ncnc2c1 [Ex 94, 1-(5-tert-butylisoxazol-3-yl)-3-{3-[7-methoxy-5-(tetrahydro-2H-pyran-4-yloxy)quinazolin-4-yloxy]phenyl}urea] | < 6.00 | 6.30 to 6.60 |  | 6.30 to 6.60 | 6.30 to 6.60
COc1cc2c(Sc3cccc(NC(=O)Nc4cc(C(C)(C)C)on4)c3)ncnc2cc1OCCN1CCC(CO)CC1 [Ex 86, 1-(5-tert-butylisoxazol-3-yl)-3-(3-(7-(2-(4-(hydroxymethyl)piperidin-1-yl)ethoxy)-6-methoxyquinazolin-4-ylthio)phenyl)urea] | < 6.00 | 6.00 to 6.30 |  | 6.30 to 6.60 | > 6.60
COCCOc1cc(NC(=O)Nc2cccc(Oc3ncnc4cc(OC)c(OC)cc34)c2)ccc1C(F)(F)F [Ex 147, 1-(3-(6,7-dimethoxyquinazolin-4-yloxy)phenyl)-3-(3-(2-methoxyethoxy)-4-(trifluoromethyl)phenyl)urea] | < 6.00 | 6.00 to 6.30 |  | 6.30 to 6.60 | < 6.00
COc1cc2ncnc(Sc3cccc(NC(=O)Nc4cc(CN5CCOCC5)cc(C(F)(F)F)c4)c3)c2cc1OC [Ex 189, 1-(3-(6,7-dimethoxyquinazolin-4-ylthio)phenyl)-3-(3-(morpholinomethyl)-5-(trifluoromethyl)phenyl)urea] | 6.00 to 6.30 | 6.00 to 6.30 |  | 6.30 to 6.60 | 6.00 to 6.30
COc1cc2ncnc(Oc3cccc(NC(=O)Nc4cc(Cl)cc(C(F)(F)F)c4)c3)c2cc1OC [Ex 140, 1-(3-chloro-5-(trifluoromethyl)phenyl)-3-(3-(6,7-dimethoxyquinazolin-4-yloxy)phenyl)urea] | < 6.00 | 6.00 to 6.30 |  | 6.00 to 6.30 | < 6.00
COCCOc1cc2ncnc(Sc3cccc(NC(=O)Nc4cc(C(C)(C)C)nn4-c4ccc(C)cc4)c3)c2cc1OC [Ex 277, 1-(3-tert-butyl-1-p-tolyl-1H-pyrazol-5-yl)-3-(3-(6-methoxy-7-(2-methoxyethoxy)quinazolin-4-ylthio)phenyl)urea] |  | < 6.00 | < 6.00 | 6.30 to 6.60 | > 6.60
COc1cc2ncnc(Sc3cccc(NC(=O)Nc4ccc(C(C)(C)C)cc4)c3)c2cc1OC [Ex 174, 1-(4-tert-butylphenyl)-3-(3-(6,7-dimethoxyquinazolin-4-ylthio)phenyl)urea] | < 6.00 | 6.30 to 6.60 |  | 6.30 to 6.60 | < 6.00
COc1cc2ncnc(Oc3cccc(NC(=O)Nc4nccc(C(F)(F)F)n4)c3)c2cc1OC [Ex 143, 1-(3-(6,7-dimethoxyquinazolin-4-yloxy)phenyl)-3-(4-(trifluoromethyl)pyrimidin-2-yl)urea] | < 6.00 | 6.30 to 6.60 |  | 6.30 to 6.60 | < 6.00
COc1cc2ncnc(Oc3cccc(NC(=O)Nc4cc(C(F)(F)F)ccc4Cl)c3)c2cc1OC [Ex 142, 1-(2-chloro-5-(trifluoromethyl)phenyl)-3-(3-(6,7-dimethoxyquinazolin-4-yloxy)phenyl)urea] | < 6.00 | 6.30 to 6.60 |  | 6.30 to 6.60 | < 6.00
COCCOc1cc2ncnc(Oc3cccc(NC(=O)Nc4cc(C(C)(C)C)nn4-c4ccccc4)c3)c2cc1OC [Ex 210, 1-(3-tert-butyl-1-phenyl-1H-pyrazol-5-yl)-3-(3-(6-methoxy-7-(2-methoxyethoxy)quinazolin-4-yloxy)phenyl)urea] |  | < 6.00 | < 6.00 | < 6.00 | > 6.60
